Test results taken from patent US20260297092A1, “PYRAZOLOPYRIMIDINE DERIVATIVES AS INHIBITORS OF NLRP3” (Takeda Pharmaceutical Company Limited, priority 2023, published 2026).
Values belong to the molecule of their own block, whether it stands above or below them.

Key:
[1] = test system: TNF-α (NF-κB pathway, THP-1 cells); assay: TNF-α Assay (IC50); assay type: cell-based, human; details: Homo sapiens, 600 ng/mL LPS, 3 hours
Outline: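 Supernatant TNF-α quantified by ELISA after 3 h stimulation with 600 ng/mL LPS at 37 °C, following 30 min compound preincubation. Cells: IFN-differentiated (25 ng/mL, 24 h) THP-1 macrophages, 40,000/well, serum-free. IC50 by sigmoidal fit of % inhibition, with TPCA-1 as 100% control.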

[2] = test system: NLRP3 inflammasome (IL-1β production in THP-1 cells); assay: IL-1β TR-FRET Assay (percentage of inhibition at 300 nM, 6 μM or 10 μM); assay type: cell-based, human; details: Homo sapiens, LPS priming, ATP activation; for inhibition at 0.3 µM: THP-1, 300 nM, read-out: IL-1β inhibitory rate at 300 nM (%); for inhibition at 6 µM: THP-1, 6 μM, read-out: IL-1β inhibitory rate at 6 μM (%)
Outline: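 Percent inhibition of IL-1β used DMSO wells as 0% and 3 μM MCC-950 wells as full inhibition, with supernatant read by HTRF. Beforehand, IFN-γ-differentiated (25 ng/mL, 24 h), LPS-primed (50 ng/mL, 24 h) THP-1 cells received compound 30 min before inflammasome activation by 20 mM ATP for 2 h.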

Compound: CCOc1nc2nn(-c3c(F)cc(OC(F)(F)F)cc3Br)cc2c(=O)[nH]1 [Example 104, 2-[2-bromo-6-fluoro-4-(trifluoromethoxy)phenyl]-6-ethoxy-2,5-dihydro-4H-pyrazolo[3,4-d]pyrimidin-4-one]
IC50 [1]: > 30 µM
inhibition at 0.3 µM [2]: 99%

Compound: Cc1cc(C)c(-n2cc3c(=O)[nH]c(-c4ccn(C)n4)nc3n2)c(O)c1 [Example 23, 2-(2-hydroxy-4,6-dimethylphenyl)-6-(1-methyl-1H-pyrazol-3-yl)-2,5-dihydro-4H-pyrazolo[3,4-d]pyrimidin-4-one]
IC50 [1]: > 30 µM
inhibition at 0.3 µM [2]: 100%

Compound: COC1(c2nc3nn(-c4c(C)cc(C5CC5)cc4C)cc3c(=O)[nH]2)CC1 [Example 266, 2-(4-cyclopropyl-2,6-dimethylphenyl)-6-(1-methoxycyclopropyl)-2,5-dihydro-4H-pyrazolo[3,4-d]pyrimidin-4-one]
IC50 [1]: > 30 µM
inhibition at 6 µM [2]: 98%

Compound: CCOc1nc2nn(-c3c(C)cc(C(F)(F)F)cc3F)cc2c(=O)[nH]1 [Example 64, 6-ethoxy-2-[2-fluoro-6-methyl-4-(trifluoromethyl)phenyl]-2,5-dihydro-4H-pyrazolo[3,4-d]pyrimidin-4-one]
IC50 [1]: > 30 µM
inhibition at 0.3 µM [2]: 100%

Compound: Cc1ccc(-n2nc3nc(OCC(C)(F)F)[nH]c(=O)c3c2C)c(O)c1 [Example 91, 6-(2,2-difluoropropoxy)-2-(2-hydroxy-4-methylphenyl)-3-methyl-2,5-dihydro-4H-pyrazolo[3,4-d]pyrimidin-4-one]
IC50 [1]: > 30 µM
inhibition at 0.3 µM [2]: 76%

Compound: CCOc1nc2nn(-c3c(F)cc(C)cc3C3CC3)cc2c(=O)[nH]1 [Example 105, 2-(2-cyclopropyl-6-fluoro-4-methylphenyl)-6-ethoxy-2,5-dihydro-4H-pyrazolo[3,4-d]pyrimidin-4-one]
IC50 [1]: > 30 µM
inhibition at 0.3 µM [2]: 99%

Compound: Cc1cc(C2CC2)cc(C)c1-n1cc2c(=O)[nH]c([C@@]3(F)CCCOC3)nc2n1 [Example 260, 2-(4-cyclopropyl-2,6-dimethylphenyl)-6-(3-fluorooxan-3-yl)-2,5-dihydro-4H-pyrazolo[3,4-d]pyrimidin-4-one]
IC50 [1]: > 30 µM
inhibition at 6 µM [2]: 96%

Compound: Cc1cc(C)c(-n2cc3c(=O)[nH]c(C(C)(C)C)nc3n2)c(O)c1 [Example 71, 6-tert-butyl-2-(2-hydroxy-4,6-dimethylphenyl)-2,5-dihydro-4H-pyrazolo[3,4-d]pyrimidin-4-one]
IC50 [1]: 1.69 µM
inhibition at 0.3 µM [2]: 96%

Compound: CCOc1nc2nn(-c3ccc(C)cc3C)cc2c(=O)[nH]1 [Example 82, 2-(2,4-dimethylphenyl)-6-ethoxy-2,5-dihydro-4H-pyrazolo[3,4-d]pyrimidin-4-one]
IC50 [1]: > 30 µM
inhibition at 0.3 µM [2]: 98%

Compound: CCOc1nc2nn(-c3ccc(C4CC4)cc3F)c(C)c2c(=O)[nH]1 [Example 111, 2-(4-cyclopropyl-2-fluorophenyl)-6-ethoxy-3-methyl-2,5-dihydro-4H-pyrazolo[3,4-d]pyrimidin-4-one]
IC50 [1]: > 30 µM
inhibition at 0.3 µM [2]: 95%

Compound: Cc1cc(C2CC2)cc(C)c1-n1cc2c(=O)[nH]c(-c3ccn(C)n3)nc2n1 [Example 297, 2-(4-cyclopropyl-2,6-dimethylphenyl)-6-(1-methyl-1H-pyrazol-3-yl)-2,5-dihydro-4H-pyrazolo[3,4-d]pyrimidin-4-one]
IC50 [1]: > 30 µM
inhibition at 6 µM [2]: 90%

Compound: Cc1cc(C)c(-n2cc3c(=O)[nH]c(C(C)C)nc3n2)c(O)c1 [Example 10, 2-(2-hydroxy-4,6-dimethylphenyl)-6-(propan-2-yl)-2,5-dihydro-4H-pyrazolo[3,4-d]pyrimidin-4-one]
IC50 [1]: > 30 µM
inhibition at 0.3 µM [2]: 98%

Compound: Cc1cc(C)c(-n2cc3c(=O)[nH]c(Cn4cccn4)nc3n2)c(O)c1 [Example 75, 2-(2-hydroxy-4,6-dimethylphenyl)-6-[(1H-pyrazol-1-yl)methyl]-2,5-dihydro-4H-pyrazolo[3,4-d]pyrimidin-4-one]
IC50 [1]: > 30 µM
inhibition at 0.3 µM [2]: 98%

Compound: Cc1cc(C)c(-n2cc3c(=O)[nH]c(-c4cc(C)ncn4)nc3n2)c(O)c1 [Example 58, 2-(2-hydroxy-4,6-dimethylphenyl)-6-(6-methylpyrimidin-4-yl)-2,5-dihydro-4H-pyrazolo[3,4-d]pyrimidin-4-one]
IC50 [1]: > 30 µM
inhibition at 0.3 µM [2]: 100%

Compound: CCOc1nc2nn(-c3c(F)cc(OC(F)F)cc3Br)cc2c(=O)[nH]1 [Example 119, 2-[2-bromo-4-(difluoromethoxy)-6-fluorophenyl]-6-ethoxy-2,5-dihydro-4H-pyrazolo[3,4-d]pyrimidin-4-one]
IC50 [1]: > 30 µM
inhibition at 0.3 µM [2]: 101%

Compound: CCOc1nc2nn(-c3ccc(C(F)(F)F)cc3C)cc2c(=O)[nH]1 [Example 69, 6-ethoxy-2-[2-methyl-4-(trifluoromethyl)phenyl]-2,5-dihydro-4H-pyrazolo[3,4-d]pyrimidin-4-one]
IC50 [1]: > 30 µM
inhibition at 0.3 µM [2]: 100%

Compound: CCOc1nc2nn(-c3c(F)cc(Br)cc3Br)cc2c(=O)[nH]1 [Example 128, 2-(2,4-dibromo-6-fluorophenyl)-6-ethoxy-2,5-dihydro-4H-pyrazolo[3,4-d]pyrimidin-4-one]
IC50 [1]: > 30 µM
inhibition at 0.3 µM [2]: 97%

Compound: COCCOc1nc2nn(-c3c(C)cc(C4CC4)cc3C)cc2c(=O)[nH]1 [Example 194, 2-(4-cyclopropyl-2,6-dimethylphenyl)-6-(2-methoxyethoxy)-2,5-dihydro-4H-pyrazolo[3,4-d]pyrimidin-4-one]
IC50 [1]: > 30 µM
inhibition at 0.3 µM [2]: 100%

Further lines, with some results ahead:

IC50 [1]: > 30 µM
Compound: CCOc1nc2nn(-c3c(C)cc(C4CC4(F)F)cc3F)cc2c(=O)[nH]1 (racemic) [Example 112, 2-[4-(2,2-difluorocyclopropyl)-2-fluoro-6-methylphenyl]-6-ethoxy-2,5-dihydro-4H-pyrazolo[3,4-d]pyrimidin-4-one]
inhibition at 0.3 µM [2]: 98%

IC50 [1]: > 30 µM
Compound: O=c1[nH]c(COC(F)F)nc2nn(-c3c(F)cc(C4CC4)cc3C(F)F)cc12 [Example 302, 2-[4-cyclopropyl-2-(difluoromethyl)-6-fluorophenyl]-6-[(difluoromethoxy)methyl]-2,5-dihydro-4H-pyrazolo[3,4-d]pyrimidin-4-one]
inhibition at 6 µM [2]: 96%

IC50 [1]: > 30 µM
Compound: Cc1cc(C2CC2)cc(C)c1-n1cc2c(=O)[nH]c(OCCOC(F)F)nc2n1 [Example 288, 2-(4-cyclopropyl-2,6-dimethylphenyl)-6-[2-(difluoromethoxy)ethoxy]-2,5-dihydro-4H-pyrazolo[3,4-d]pyrimidin-4-one]
inhibition at 6 µM [2]: 99%

IC50 [1]: > 30 µM
Compound: COCCOc1nc2nn(-c3c(F)cc(C4CC4)cc3C(F)F)cc2c(=O)[nH]1 [Example 186, 2-[4-cyclopropyl-2-(difluoromethyl)-6-fluorophenyl]-6-(2-methoxyethoxy)-2,5-dihydro-4H-pyrazolo[3,4-d]pyrimidin-4-one]
inhibition at 0.3 µM [2]: 100%

IC50 [1]: > 30 µM
Compound: CCOc1nc2nn(-c3c(F)cc(C4CC4)cc3C(O)C(F)(F)F)cc2c(=O)[nH]1 (racemic) [Example 192, 2-[4-cyclopropyl-2-fluoro-6-(2,2,2-trifluoro-1-hydroxyethyl)phenyl]-6-ethoxy-2,5-dihydro-4H-pyrazolo[3,4-d]pyrimidin-4-one]
inhibition at 0.3 µM [2]: 95%

IC50 [1]: > 30 µM
Compound: CCOc1nc2nn(-c3ccc(Cl)cc3O)c(C)c2c(=O)[nH]1 [Example 60, 2-(4-chloro-2-hydroxyphenyl)-6-ethoxy-3-methyl-2,5-dihydro-4H-pyrazolo[3,4-d]pyrimidin-4-one]
inhibition at 0.3 µM [2]: 100%

IC50 [1]: > 30 µM
Compound: CCOc1nc2nn(-c3c(C)cc(OC)cc3Br)cc2c(=O)[nH]1 [Example 143, 2-(2-bromo-4-methoxy-6-methylphenyl)-6-ethoxy-2,5-dihydro-4H-pyrazolo[3,4-d]pyrimidin-4-one]
inhibition at 0.3 µM [2]: 93%

IC50 [1]: > 30 µM
Compound: COC1(c2nc3nn(-c4c(C)cc(C5CC5)cc4C)cc3c(=O)[nH]2)CCC1 [Example 277, 2-(4-cyclopropyl-2,6-dimethylphenyl)-6-(1-methoxycyclobutyl)-2,5-dihydro-4H-pyrazolo[3,4-d]pyrimidin-4-one]
inhibition at 6 µM [2]: 96%

IC50 [1]: > 30 µM
Compound: COc1nc2nn(-c3c(C)cc(Br)cc3C)cc2c(=O)[nH]1 [Example 138, 2-(4-bromo-2,6-dimethylphenyl)-6-methoxy-2,5-dihydro-4H-pyrazolo[3,4-d]pyrimidin-4-one]
inhibition at 0.3 µM [2]: 93%

IC50 [1]: > 30 µM
Compound: CCOc1nc2nn(-c3c(C)cc(C4CC4)cc3C#N)cc2c(=O)[nH]1 [Example 179, 5-cyclo propyl-2-(6-ethoxy-4-oxo-4,5-dihydro-2H-pyrazolo[3,4-d]pyrimidin-2-yl)-3-methylbenzonitrile]
inhibition at 0.3 µM [2]: 102%

IC50 [1]: > 30 µM
Compound: CCOc1nc2nn(-c3ccc(C)cc3OC(F)F)cc2c(=O)[nH]1 [Example 83, 2-[2-(difluoromethoxy)-4-methylphenyl]-6-ethoxy-2,5-dihydro-4H-pyrazolo[3,4-d]pyrimidin-4-one]
inhibition at 0.3 µM [2]: 99%

IC50 [1]: > 30 µM
Compound: Cc1cc(C)c(-n2cc3c(=O)[nH]c(-c4ccc(F)cn4)nc3n2)c(O)c1 [Example 13, 6-(5-fluoropyridin-2-yl)-2-(2-hydroxy-4,6-dimethylphenyl)-2,5-dihydro-4H-pyrazolo[3,4-d]pyrimidin-4-one]
inhibition at 0.3 µM [2]: 99%

IC50 [1]: 2.26 µM
Compound: Cc1cc(-c2nc3nn(-c4c(C)cc(C5CC5)cc4C)cc3c(=O)[nH]2)on1 [Example 275, 2-(4-cyclopropyl-2,6-dimethylphenyl)-6-(3-methyl-1,2-oxazol-5-yl)-2,5-dihydro-4H-pyrazolo[3,4-d]pyrimidin-4-one]
inhibition at 6 µM [2]: 101%
